Reference: PMC8621208, “Antiseptic 9-Meric Peptide with Potency against Carbapenem-Resistant Acinetobacter baumannii Infection” (International Journal of Molecular Sciences, 2021)
In brackets after ≈: the same amount, converted by molar mass. Read-outs that look alike come from different tables or passages of the source. Where a SMILES comes first, the peptide text is derived from it. Where no end group is shown, it is not given here. [ ]: non-standard residue; d: D form.

Tests used:
CRAB C0 outer membrane = assay: Outer membrane permeability, NPN uptake; format: cell-based, carbapenem-resistant A. baumannii
Description: The effect of peptides on the disturbance of CRAB C0 outer membrane was analyzed using 1-N-phenylnaphthylamine (NPN, Sigma-Aldrich, St. Louis, MO, USA) uptake assay, as previously described. Briefly, CRAB C0 cell suspensions were mixed with NPN (1 mM) and the background fluorescence was recorded for subtraction (excitation λ = 350 nm, emission λ = 420 nm) using RF-6000PC fluorescent spectrophotometer (Shimadzu Scientific Instruments, Kyoto, Japan). Changes in the NPN fluorescence were recorded after addition of different concentrations of peptides and values are expressed as—fluorescence intensity (A.U.).

CRAB C0 [1] = format: cell-based, carbapenem-resistant A. baumannii; conditions: peptide pre-incubated 6 h at 37 °C
Description: (§1) All the peptides at their MICs were pre-incubated with proteolytic enzymes such as trypsin and α-chymotrypsin (10,000:1; peptide: enzyme ratio) for 6 h at 37 °C. Then, 100 μL of peptide-protease cocktail was added to the 100 µL bacterial suspension (E. coli, A. baumannii and CRAB C0, 2 × 10^5 CFU/mL) and further incubated for 16 h at 37 °C. Bacterial suspension without peptide and protease served as negative control. The analysis was repeated at three times using independent experiments, and the degree of bacterial growth was measured at 600 nm using a microplate reader.

A. baumannii [2] = assay: MIC, broth dilution; format: cell-based, Acinetobacter baumannii KCCM 40203; conditions: 16 h, MH media, read-out: Minimal Inhibitory Concentration (MIC)
Source text: (§2) Escherichia coli KCTC 1682 was obtained from the Korean Collection for Type Cultures (KCTC) (Jeongeup-si, Korea), Acinetobacter baumannii KCCM 40203, Pseudomonas aeruginosa KCCM 11328 from the Korea Culture Center of Microorganisms (KCCM) (Seoul, Korea). Klebsiella pneumoniae NCCP 16054 were obtained from the National Culture Collection for Pathogens (NCCP) (Osong, Korea). Additionally, two carbapenem-resistant E. coli (CREC E1 and E2), 11 carbapenem-resistant A. baumannii (CRAB C0–C10) and two carbapenem-resistant K. pneumoniae (CRKP K1 and K2) were isolated from the patients, who presented symptoms and signs of infection at Korea University Anam Hospital (Seoul, Korea) (IRB registration no. 2020AN0157, 4 March 2021). CRAB C0–C10 have the OXA-23 gene with carbapenem-resistance.
(§3) The minimum inhibitory concentrations (MIC) were determined using broth dilution method. Briefly, all the mentioned bacterial strains were grown overnight at 37 °C by Muller–Hinton (MH) media. […] After 16 h incubation, the bacterial growth was read at 600 nm using a SpectraMAX microplate reader (Molecular Devices, San Jose, CA, USA).

CRKP K1 = assay: MIC, broth dilution; format: cell-based, carbapenem-resistant K. pneumoniae; conditions: read-out: Minimal Inhibitory Concentration (MIC)
Source text: as §2, §3

CRKP K2 = assay: MIC, broth dilution; format: cell-based, carbapenem-resistant K. pneumoniae; conditions: read-out: Minimal Inhibitory Concentration (MIC)
Source text: as §2, §3

[3] = test system: human kidney (HK)-2 cells; assay: Cytotoxicity, WST-8 assay; format: cell-based; conditions: 24 h; for Toxicity in HK-2 cells: up to 100 μM
Description: (§4) Figure 6 In vitro cytotoxicity of Pro9-3 and their analogues. (A) Dose-response curve represent the hemolytic activity of peptides against sheep red blood cell (sRBC). Concentration-dependent (0–100 μM) toxic effects induced by peptides on (B) RAW 264.7 murine macrophage cells and (C) human kidney (HK)-2 cells for 24 h. Melittin was used as a control. Statistical analysis was performed using two-way analysis of variance (ANOVA) with Dunnett’s comparison test. Values are expressed as mean ± SEM of three independent experiments. * p < 0.05, ** p < 0.01, *** p < 0.001, and ns, non-significant compared with the control.
(§5) RAW 264.7 mouse macrophage cells and Human kidney (HK)-2 cells were obtained from Korean cell line bank (Seoul, Korea) and the cells were maintained in DMEM culture media (Thermo Fischer Scientific Inc., Waltham, MA, USA) supplemented with 10% fetal bovine serum, 1% penicillin/streptomycin at 37 °C in a humidified 5% CO2 incubator. The cytotoxicity of the peptides was analyzed using WST-8 cell proliferation assay (Biomax Co, Ltd., Seoul, Korea), and the experiment was performed according to the kit protocol. Briefly, cells (1 × 10^4) were seeded in 96-well plate and the peptides treatment (0–100 μM) were initiated at 80% confluency and then for 24 h. After incubation, WST-8 reagent was added and the change in absorbance was read at 450 nm against reagent blank, and values are expressed as percent cell survival.

[4] = test system: sheep red blood cells (sRBC); assay: Hemolytic assay; format: cell-based; conditions: 100 μM
Description: The peptide-induced toxicity was determined by hemolytic against Sheep red blood cells (sRBC). Briefly, Fresh sRBC were washed at least three times with phosphate-buffered saline (PBS) and the debris were removed by centrifugation (1000× g for 5 min, 4 °C). All the peptides including melittin control (0.2–100 μM) and positive control (1% (v/v) triton X-100) were incubated with 4% (v/v) sRBC for 1 h at 37 °C followed by centrifugation at 1000× g for 5 min. The supernatant was measured at 405 nm using a microplate reader.

CRAB C5 = assay: MIC, broth dilution; format: cell-based, carbapenem-resistant A. baumannii; conditions: read-out: Minimal Inhibitory Concentration (MIC)
Source text: as §2, §3

CRAB C6 = assay: MIC, broth dilution; format: cell-based, carbapenem-resistant A. baumannii; conditions: read-out: Minimal Inhibitory Concentration (MIC)
Source text: as §2, §3

CRAB C10 = assay: MIC, broth dilution; format: cell-based, carbapenem-resistant A. baumannii; conditions: read-out: Minimal Inhibitory Concentration (MIC)
Source text: as §2, §3

CRAB C0 [5] = assay: MIC, broth dilution; format: cell-based, carbapenem-resistant A. baumannii; conditions: read-out: Minimal Inhibitory Concentration (MIC)
Source text: as §2, §3

CRAB C3 = assay: MIC, broth dilution; format: cell-based, carbapenem-resistant A. baumannii; conditions: read-out: Minimal Inhibitory Concentration (MIC)
Source text: as §2, §3

CRAB C2 = assay: MIC, broth dilution; format: cell-based, carbapenem-resistant A. baumannii; conditions: read-out: Minimal Inhibitory Concentration (MIC)
Source text: as §2, §3

CRAB C4 = assay: MIC, broth dilution; format: cell-based, carbapenem-resistant A. baumannii; conditions: read-out: Minimal Inhibitory Concentration (MIC)
Source text: as §2, §3

CRAB C9 = assay: MIC, broth dilution; format: cell-based, carbapenem-resistant A. baumannii; conditions: read-out: Minimal Inhibitory Concentration (MIC)
Source text: as §2, §3

CRAB C7 = assay: MIC, broth dilution; format: cell-based, carbapenem-resistant A. baumannii; conditions: read-out: Minimal Inhibitory Concentration (MIC)
Source text: as §2, §3

[6] = test system: RAW 264.7 murine macrophage cells; assay: Cytotoxicity, WST-8 assay; format: cell-based, mouse; conditions: 24 h
Description: as §4, §5

P. aeruginosa = assay: MIC, broth dilution; format: cell-based, Pseudomonas aeruginosa KCCM 11328; conditions: 16 h, MH media, read-out: Minimal Inhibitory Concentration (MIC)
Source text: as §2, §3

E. coli [7] = assay: MIC, broth dilution; format: cell-based, Escherichia coli KCTC 1682; conditions: E. coli; 16 h, MH media; read-out: Minimal Inhibitory Concentration (MIC)
Source text: as §2, §3

K. pneumoniae = assay: microbe, parasite or virus in culture; conditions: 16 h
Source text: as §2, §3

CRAB C1 = assay: microbe, parasite or virus in culture; conditions: CRAB C1
Source text: as §2, §3

CRAB C8 = assay: microbe, parasite or virus in culture; conditions: CRAB C8
Source text: as §2, §3

CREC E1 = assay: MIC, broth dilution; format: cell-based, carbapenem-resistant E. coli; conditions: read-out: Minimal Inhibitory Concentration (MIC)
Source text: as §2, §3

CREC E2 = assay: MIC, broth dilution; format: cell-based, carbapenem-resistant E. coli; conditions: read-out: Minimal Inhibitory Concentration (MIC)
Source text: as §2, §3

E. coli [8] = format: cell-based, Escherichia coli; conditions: peptide pre-incubated 6 h at 37 °C
Description: as §1

A. baumannii [9] = format: cell-based, Acinetobacter baumannii; conditions: peptide pre-incubated 6 h at 37 °C
Description: as §1

| Compound | Minimal Inhibitory Concentration (MIC) (CRAB C0 [1]; CRAB C0 + Trypsin) | Minimal Inhibitory Concentration (MIC) (CRAB C0 [1]; CRAB C0 + α-Chymotrypsin) | MIC (A. baumannii [2]) | MIC (CRKP K1) | MIC (CRKP K2) | Hemolytic activity [4] | MIC (CRAB C5) | MIC (CRAB C6) | MIC (CRAB C10) | MIC (CRAB C0 [5]) | MIC (CRAB C3) | MIC (CRAB C2) | MIC (CRAB C4) | MIC (CRAB C9) | MIC (CRAB C7) | MIC (P. aeruginosa) | MIC (E. coli [7]) | Minimal Inhibitory Concentration (MIC) (CRAB C1) | Minimal Inhibitory Concentration (MIC) (CRAB C8) | MIC (CREC E1) | other results |
| --- | --- | --- | --- | --- | --- | --- | --- | --- | --- | --- | --- | --- | --- | --- | --- | --- | --- | --- | --- | --- | --- |
| CC[C@@H](C)[C@@H](NC(=O)[C@@H](C)NC(=O)[C@@H](CC(C)C)NC(=O)[C@@H](Cc1c[nH]c2ccccc12)NC(=O)[C@@H](CC(C)C)NC(=O)[C@H](N)CCCNC(=N)N)C(=O)N[C@H](Cc1c[nH]c2ccccc12)C(=O)N[C@H](CCCNC(=N)N)C(=O)N[C@H](CCCNC(=N)N)C(N)=O [Pro9-3D, rlwlaiwrr-NH2] (H-[dR][dL][dW][dL][dA][dI][dW][dR][dR]-NH2) | 4 µM | 4 µM | 4 µM (≈ 5.07 µg/mL) | 16 µM (≈ 20.3 µg/mL) | 8 µM (≈ 10.1 µg/mL) | 1.9% | 8 µM (≈ 10.1 µg/mL) | 8 µM (≈ 10.1 µg/mL) | 8 µM (≈ 10.1 µg/mL) | 4 µM (≈ 5.07 µg/mL) | 8 µM (≈ 10.1 µg/mL) | 8 µM (≈ 10.1 µg/mL) | 8 µM (≈ 10.1 µg/mL) | 8 µM (≈ 10.1 µg/mL) | 8 µM (≈ 10.1 µg/mL) | 8 µM (≈ 10.1 µg/mL) | 8 µM (≈ 10.1 µg/mL) | 8 µM | 8 µM | 8 µM (≈ 10.1 µg/mL) | NPN uptake (outer membrane permeabilization) (CRAB C0 outer membrane): greater NPN uptake than their L-form peptides; Toxicity in human kidney (HK)-2 cells ([3]; 100 μM): 22.9%; Toxicity in RAW 264.7 cells ([6]; 100 μM): 44.5%; Minimal Inhibitory Concentration (MIC) (K. pneumoniae): 8 µM; MIC (CREC E2): 8 µM (≈ 10.1 µg/mL) |
| RLWLAIWRR-NH2 [Pro9-3] | >64 µM | >64 µM | 16 µM | 64 µM | 64 µM | 2.5% | 16 µM | 16 µM | 16 µM | 8 µM | 16 µM | 16 µM | 16 µM | 16 µM | 16 µM | 64 µM | 16 µM | 16 µM | 16 µM | 16 µM | Toxicity in HK-2 cells [3]: neither R-Pro9-3 nor Pro9-3 (parent) showed toxicity; Toxicity in RAW 264.7 cells ([6]; up to 100 μM): neither R-Pro9-3 nor Pro9-3 (parent) showed toxicity; Minimal Inhibitory Concentration (MIC) (K. pneumoniae): 64 µM; MIC (CREC E2): 16 µM |
| RRWIALWLR-NH2 [R-Pro9-3] | 64 µM | 64 µM | 16 µM | 32 µM | 32 µM | 3.4% | 32 µM | 32 µM | 16 µM | 8 µM | 32 µM | 32 µM | 32 µM | 16 µM | 32 µM | 64 µM | 16 µM | 32 µM | 32 µM | 16 µM | Minimal Inhibitory Concentration (MIC) (E. coli [8]; E. coli + Trypsin): >64 µM; Minimal Inhibitory Concentration (MIC) (E. coli [8]; E. coli + α-Chymotrypsin): 64 µM; Toxicity in HK-2 cells [3]: neither R-Pro9-3 nor Pro9-3 (parent) showed toxicity; Minimal Inhibitory Concentration (MIC) (A. baumannii [9]; A. baumannii + Trypsin): >64 µM; Minimal Inhibitory Concentration (MIC) (A. baumannii [9]; A. baumannii + α-Chymotrypsin): >64 µM; Toxicity in RAW 264.7 cells ([6]; up to 100 μM): neither R-Pro9-3 nor Pro9-3 (parent) showed toxicity; Minimal Inhibitory Concentration (MIC) (K. pneumoniae; K. pneumoniae, MH media): 32 µM; MIC (CREC E2): 16 µM |
